Values quoted from earlier work, collected in article PMC4258517 (Antiviral research, 2014).

Tests used:
BKV = settings: HK2 cells, 15 μM; ref Wright et al., 2009
SV40 = settings: 100 μM; ref Wright et al., 2009
patients with PML = settings: trial prematurely terminated, ref Clifford et al., 2013
[1] = test system: SV40 large T antigen ATPase; settings: ref Seguin et al., 2012b
[2] = read-out: MTS assay IC50; cytotoxicity; ref Seguin et al., 2012b

SMILES: CC1=C(C(=O)OCc2ccccc2)C(c2ccc(-c3ccccc3)cc2)NC(=O)N1CCCCCC(=O)O (stereo not shown) [MAL2-11B]
- reduction of BKV viral load (BKV): one log reduction
- reduction in SV40 DNA replication (SV40): fivefold reduction

SMILES: OC(c1cc(C(F)(F)F)nc2c(C(F)(F)F)cccc12)C1CCCCN1 (stereo not shown) [Mefloquine]
- clinical trial outcome (patients with PML): lack of efficacy

SMILES: Oc1c(Cl)cc(Cl)cc1Sc1cc(Cl)cc(Cl)c1O [bithionol]
- mechanism of inhibition on SV40 protein [1]: competitive
- IC50 [2]: 68 µM

SMILES: Oc1c(Cl)cc(Cl)c(Cl)c1Cc1c(O)c(Cl)cc(Cl)c1Cl [hexachlorophene]
- mechanism of inhibition on SV40 protein [1]: competitive
- IC50 [2]: 55 µM
